Entries after “also recorded” stand apart in the source; their conditions may differ.
Legend:
[1] = average adult; cited from earlier work
DrAMPCs [2] = experiment: Cell elongation and differentiation after hormone treatment (image analysis, immunostaining); assay type: cell-based, Drosophila melanogaster
Method: (§1) Drosophila melanogaster adult muscle progenitor-like cells (DrAMPCs) were acquired from Kerafast (Boston, Mass.) (#EF4006). The cell line was originally immortalized by the Persimmon Research Group at Harvard University, and was derived from primary embryo cultures in which Gal4 drives Ras^V12 and GFP expression. DrAMPCs were cultured in insect growth media composed of Schneider's Insect Medium from Sigma-Aldrich (St. Louis, Mo.) (#S0146) supplemented with 10% heat inactivated fetal bovine serum from ThermoFisher (Waltham, Mass.) (#16140) and 1% penicillin/streptomycin (ThermoFisher, #15140122). For serum-free growth media experiments, media consisted of Ex-Cell 405 Serum-Free Medium (Sigma-Aldrich, #14405C) and 1% penicillin/streptomycin. For static culture, DrAMPCs were cultured in either plasma-treated flasks (ThermoFisher, #156499) or ultra-low attachment flasks (Corning, N.Y.) (#CLS3814) and incubated at 19° C. in a temperature-controlled incubator from VWR (Radnor, Pa.) (#89511-416). For suspension culture, DrAMPCs were cultured in shaker flasks (ThermoFisher, #4115-0250) on an orbital shaker set at 40 rpm at room temperature. When indicated, dextran sulfate (Sigma-Aldrich, #67578) was supplemented to serum-free media by dissolution and sterile filtration with 0.2 μm bottle top filters (ThermoFisher, #595-3320). For hormone treatment and differentiation experiments, DrAMPCs were cultured in insect growth media or serum-free media supplemented with methoprene (Sigma-Aldrich, #33375) and/or 20-hydroxyecdysone (Sigma-Aldrich, #H5142) which were dissolved in DMSO (Sigma-Aldrich, #D8418). DrAMPCs were seeded at 75,000 or 300,000 cells/cm^2 in 2D culture and 1,000,000 cells/sponge in 3D culture. For mammalian controls, C2C12 cells from ATTC (Manassas, Va.) (#CRL-1772) were cultured in growth media composed of DMEM+Glutamax (ThermoFisher, #10566) supplemented with 10% heat inactivated fetal bovine serum and 1% penicillin/streptomycin. C2C12s were seeded at 10,000 cells/cm^2.
Cell viability was determined by a Live/Dead staining kit (ThermoFisher, #L3224). At time of assay, media was gently aspirated from the cell surface and cells were rinsed with phosphate buffered saline (PBS) (ThermoFisher, #14040133). Cells were stained with 2 μM calcein AM and 4 μM EthD-1 solution for 30 minutes at room temperature in the dark and imaged with a fluorescence microscope. For immunocytochemical staining, media was gently aspirated from cells and the cell surface was rinsed with PBS. Cells were fixed with 4% paraformaldehyde from Fisher Scientific (Hampton, N.H.) (#J61899AK) for 10 minutes and rinsed with PBS. Cells were then permeabilized with 0.5% Triton X-100 and rinsed with blocking buffer consisting of phosphate buffered saline, 5% fetal bovine serum and 0.05% sodium azide. Cells were incubated in blocking buffer for 15 minutes before addition of primary antibody, then incubated at 4° C. overnight. Cells were rinsed and incubated with fresh blocking buffer for 15 minutes before addition of secondary antibody, then incubated in the dark on ice for 1 hour. Again, cells were rinsed and incubated with fresh blocking buffer for 15 minutes before counterstaining and mounting with DAPI mounting medium from Abcam (Cambridge, UK) (#ab104139). Detailed antibody information is available in Table 5. Fluorescence imaging was performed on a Keyence microscope (Osaka, Japan) (#BZ-X700). Confocal imaging was performed on a TCS SP8 microscope from Leica Microsystems (Wetzlar, Germany).

DrAMPCs [3] = experiment: CyQuant proliferation assay after hormone treatment; assay type: cell-based, Drosophila melanogaster
Method: as §1, with “For mammalian controls, C2C12 cells from ATTC (Manassas, Va.) (#CRL-1772) were cultured in growth media composed of DMEM+Glutamax (ThermoFisher, #10566) supplemented with 10% heat inactivated fetal bovine serum and 1% penicillin/streptomycin. C2C12s were seeded at 10,000 cells/cm^2.” left out
Cell adhesion to tissue culture plastic and chitosan films was quantified via a MTS Assay from Promega (Madison, Wis.) (#G3582) by measuring absorbance after 2.5-hour incubation with the MTS reagent. Cell proliferation and viability were measured by fluorescence, Live/Dead kit (ThermoFisher, #L3224) stained image analysis or CyQuant proliferation assays (ThermoFisher, #C7026). For fluorescence measurements, GFP-expressing DrAMPCs were imaged on a fluorescence microscope over the course of a week using the automated multi-point capture feature. Fluorescence was quantified on Fiji software and normalized to the values determined at the first time-point. For Live/Dead stained image analysis, cells were stained following the kit protocols and imaged on a fluorescence microscope. The images were analyzed with Fiji to quantify the viability and total cell population over time. […] Microplate measurements were performed on a SpectraMax M2 reader from Molecular Devices (San Jose, Calif.). Cell populations were determined from a standard curve.

DrAMPCs [4] = experiment: Adhesion and differentiation on chitosan sponge scaffolds; assay type: cell-based, Drosophila melanogaster
Method: Mushroom chitosan of 100 kDa molecular weight from Chinova Bioworks (New Brunswick, Canada) was dissolved in 2% acetic acid in distilled water for 12 hours at room temperature on a stir plate. The chitosan solution was centrifuged at 16,880×g for 3 hours to remove undissolved particles and diluted in distilled water to the desired concentrations (1%, 2% and 4%). Concentrations were verified by drying small volumes at 60° C. for 2 hours and calculating dry weight/wet weight. To prepare films, the solution was cast on plastic and allowed to dry overnight. To prepare sponges, the solution was poured into PDMS molds with an aluminum sheet separating one side of the mold from a separate chamber. Liquid nitrogen was poured into the chamber opposite the chitosan solution and continually replenished until the entire solution had frozen across the temperature gradient. Samples were then lyophilized for 48 hours. Prior to sterilization and seeding, films and sponges were submerged in 1M sodium carbonate for 1 hour at room temperature and subsequently rinsed three times in distilled water for 20 minutes and soaked in distilled water overnight. For hydrated mechanical analysis, sectioned sponges were soaked in PBS prior to testing.
Sponges used for seeding were cylinders 6 mm in diameter and 1.5 mm thick. […]

[5] = test system: Manduca sexta embryonic precursor cell (Ms-EPCs); experiment: Ms-EPC culture and differentiation; assay type: cell-based
DrAMPCs [6] = experiment: Potassium induced contraction; assay type: cell-based, Drosophila melanogaster
Method: Cells were differentiated for 5 days before the experiment. High K+ concentration media was produced by dissolving KCl in growth media at the indicated concentration. Cells were imaged on a Phase Contrast microscope before growth media was aspirated and replaced with 600 mM K+ media. Cells were imaged over a duration of 15 minutes.

DrAMPCs [7] = experiment: Surface coatings: myosin heavy chain expression and cell attachment (image fluorescence quantification); assay type: cell-based, Drosophila melanogaster; conditions: cultures on coated surface
DrAMPCs [8] = experiment: Agitated suspension culture in shaker flasks (aggregation); assay type: cell-based, Drosophila melanogaster; conditions: 100 μg/mL dextran sulfate in EC405, shaker flasks
Method: It was noted that when static culture flasks became over-confluent, the cells continued to grow in three-dimensional aggregates or in suspension. […] The cells were then transitioned from static suspension culture to agitated suspension culture with the use of shaker flasks incubated at room temperature. In agitated suspension, the cells formed aggregates (FIG. 1G). […] After expansion in suspension culture and removal of dextran sulfate, the cells transitioned back to adherent monolayers and retained a myoblast-like morphology.
Drosophila melanogaster adult muscle progenitor-like cells (DrAMPCs) were acquired from Kerafast (Boston, Mass.) (#EF4006). The cell line was originally immortalized by the Persimmon Research Group at Harvard University, and was derived from primary embryo cultures in which Gal4 drives Ras^V12 and GFP expression. DrAMPCs were cultured in insect growth media composed of Schneider's Insect Medium from Sigma-Aldrich (St. Louis, Mo.) (#S0146) supplemented with 10% heat inactivated fetal bovine serum from ThermoFisher (Waltham, Mass.) (#16140) and 1% penicillin/streptomycin (ThermoFisher, #15140122). For serum-free growth media experiments, media consisted of Ex-Cell 405 Serum-Free Medium (Sigma-Aldrich, #14405C) and 1% penicillin/streptomycin. […]

DrAMPCs [9] = experiment: Adhesion and growth on mushroom chitosan films (MTS assay, fluorescence microscopy); assay type: cell-based, Drosophila melanogaster; conditions: 0.1% gelatin solution coating
Method: Cell adhesion to tissue culture plastic and chitosan films was quantified via a MTS Assay from Promega (Madison, Wis.) (#G3582) by measuring absorbance after 2.5-hour incubation with the MTS reagent. Cell proliferation and viability were measured by fluorescence, Live/Dead kit (ThermoFisher, #L3224) stained image analysis or CyQuant proliferation assays (ThermoFisher, #C7026). For fluorescence measurements, GFP-expressing DrAMPCs were imaged on a fluorescence microscope over the course of a week using the automated multi-point capture feature. Fluorescence was quantified on Fiji software and normalized to the values determined at the first time-point. For Live/Dead stained image analysis, cells were stained following the kit protocols and imaged on a fluorescence microscope. The images were analyzed with Fiji to quantify the viability and total cell population over time. For CyQuant proliferation assays, cells were plated in 96-well plates for each time-point. At each time-point, media was blotted from the plates and plates were stored at −80° C. After all time-points were collected, plates were thawed to room temperature and stained with CyQuant working solution for 5 minutes. Microplate measurements were performed on a SpectraMax M2 reader from Molecular Devices (San Jose, Calif.). Cell populations were determined from a standard curve. […]

[10] = both serum-supplemented and serum-free cultures

In the case of `COC(C)(C)CCC[C@H](C)C/C=C/C(C)=C/C(=O)OC(C)C` (racemic) [methoprene], the recommended exposure [1] is listed as 0.3750 mg/day, the “average cell length less than control cells” value (DrAMPCs [2]; 500 ng/mL) is listed as 8 μm and the “cell elongation (preliminary sign of differentiation)” value (DrAMPCs [2]; JH treatment) is listed as “inhibited cell elongation”. For the same molecule, the “comparison of treatment levels on proliferation” value (DrAMPCs [3]; 500 ng/mL vs 1,000 ng/mL) was “the 500 ng/mL treatment level had a larger effect than the 1,000 ng/mL treatment”, the “proliferation versus control groups” value (DrAMPCs [3]; 500 or 1,000 ng/mL, day 1 and 5) was “higher proliferation than control groups” and the proliferation (DrAMPCs [3]; [10]) was “increased proliferation”.
In the case of `CC(C)(O)CC[C@@H](O)[C@](C)(O)[C@H]1CC[C@@]2(O)C3=CC(=O)[C@@H]4C[C@@H](O)[C@@H](O)C[C@]4(C)[C@H]3CC[C@]12C` [20-hydroxyecdysone], the “generation of myosin heavy chain-expressing cells” value (DrAMPCs [4]; on plastic and chitosan scaffolds) is reported as “myosin heavy chain-expressing cells could be generated (albeit at low efficiency)”, the “fraction of cells on chitosan scaffolds differentiated” value (DrAMPCs [4]; treated with 20-hydroxyecdysone) is reported as < 1% and the “concentration able to trigger cell elongation” value (DrAMPCs [2]; as low as) is reported as 40 ng/mL. For the same molecule, the differentiation (DrAMPCs [2]; [10]) was “triggered differentiation”, the “differentiation of EC405 adapted cells” value (DrAMPCs [2]; small fraction of cells, 1 μg/mL 20-HE for 5 days) was “differentiate and form long, multinucleated myotubes that express myosin heavy chain” and the “growth rates versus control groups” value (DrAMPCs [3]; 0, 500 or 1000 ng/mL 20-HE) was “did not significantly differ from control groups”. For the same molecule, the “differentiation of primary Ms-EPC cells” value ([5]; differentiated with 20-hydroxyecdysone) was “multinucleated, striated and express myosin heavy chain”.
For `[Cl-].[K+]` [K^+, KCl], the “cell viability after potassium treatment” value (DrAMPCs [6]) was 95%, the cell contraction (DrAMPCs [6]; 300 mM K+) was “did not contract” and the cell contraction (DrAMPCs [6]; 600 mM K+) was “did contract”. For the same molecule, the “cell fractional shortening, myoblasts (elongated cells)” value (DrAMPCs [6]; 600 mM K+, image analysis, n=12) was 31.6%±14.8% and the “cell fractional shortening, spherical proliferative precursor cells” value (DrAMPCs [6]; 600 mM K+, image analysis, n=14) was 1.6%±16.2%.
For Concanavalin A, the cell attachment (DrAMPCs [7]) was “do not increase cell attachment” and the “expression of myosin heavy chain in differentiated DrAMPCs” value (DrAMPCs [7]) was “may increase”.
In the case of dextran sulfate, the “cell aggregation in agitated suspension” value (DrAMPCs [8]) is reported as “sufficient to reduce aggregation and promote a single cell suspension” and the “cell aggregation in agitated suspension” value (DrAMPCs [8]; listed as Dextran sulfate) is reported as “sufficient to reduce cell aggregation”.
For gelatin, the “cell adhesion and growth on gelatin-coated chitosan films” value (DrAMPCs [9]) was “did not increase cell adhesion to chitosan films; also recorded: grow in aggregates and were detached from the center of the well during the PBS rinse” and the “cell adhesion to gelatin coated tissue culture plastic” value (DrAMPCs [9]) was “improve cell adhesion”.
For laminin, the cell attachment (DrAMPCs [7]) was “do not increase cell attachment” and the “expression of myosin heavy chain in differentiated DrAMPCs” value (DrAMPCs [7]) was “may increase”.
In the case of poly-lysine, the “cell morphology of Ms-EPCs” value ([5]; poly-lysine coated plastic) is reported as “more cell elongation, perhaps differentiation”.

Reference: patent US20220071233A1, “IN VITRO INSECT MUSCLE AS A NUTRITION SOURCE” (Trustees of Tufts College, priority 2018, published 2022)
